Test results taken from article PMC5491906, “Cellular uptake and anti-tumor activity of gemcitabine conjugated with new amphiphilic cell penetrating peptides” (EXCLI Journal, 2017).
Where a SMILES comes first, the peptide text is derived from it. Where no end group is shown, it is not given here. The star is where a group is joined. X1 = Nc1ccn([C@@H]2O[C@H](COC(=O)CCC(=O)*)[C@@H](O)C2(F)F)c(=O)n1

Experiments:
A549 cells [1] = assay: Antitumor activity of free gemcitabine and Gem-CPP conjugates by MTT test; conditions: for cell viability: 72 h incubation, 10 % FBS; for cell viability / cytotoxicity in comparison to the free drug: 72 h, 15 and 25 µM where stated
Protocol: (§1) A549 lung carcinoma cell line was obtained from the Pasteur Institute (Iran). Cells were maintained in RPMI 1640 medium supplemented with 10 % FBS, 100 units/ml penicillin, and 100 μg/ml streptomycin and grown at 37 °C in a 5 % CO2 humidified atmosphere.
(§2) A549 cells were seeded into 96-well plates at a density of 1.5 × 10^4 cells/well and pre-incubated for 24 h. The next day, different concentrations of peptides were added to the culture medium. Cells were incubated at 37 °C for 72 h. The medium was removed and the wells were washed with PBS. The MTT assay was performed by introducing 50 μl of 2 mg/ml MTT to each well for 4 h. The culture media aspirated and then resulting formazan crystals were dissolved in DMSO and the absorbance of individual wells was obtained at 570 nm. Untreated cells were defined as 100 % viable.
The antitumor activity of free gemcitabine and its conjugates with CPPs (Gem-CPP) was investigated using MTT test after incubation for 72 h. The activity of drug-peptide conjugates i.e. Gem-R5W3R4, Gem-[RW]6, Gem-[RW]5, Gem-[RW]4 and Gem-[WR]3, was evaluated and compared with that of the free drug (Figure 6(Fig. 6)).
Figure 6 Toxicity of Gem-R5W3R4 (A), Gem-[RW]6 (B), Gem-[RW5] (C), Gem-[RW]4 (D), Gem-[RW]3 (E) and Gem to A549 cells. The cells were incubated for 3 days in 10 % FBS with or without peptides and analyzed for proliferation by MTT assay.

A549 cells [2] = assay: Cytotoxicity of blank CPPs by MTT assay; conditions: 72 h peptide exposure
Protocol: as §1, §2

A549 cells [3] = assay: Fluorescent microscopy of uptake and intracellular localization of FITC-labeled peptides; assay type: cell-based; conditions: FITC-labeled peptide, 25 µM, 1.5 h at 37 °C, live A549 cells, fluorescence read-out
Protocol: The cellular uptake of the FITC-labeled peptide was examined in A549 cell line. A549 cells were seeded with RPMI 1640 medium on coverslips in 6-well plates and allowed to adhere overnight. Then the medium was removed and washed with PBS. The cells were treated with FITC-labeled peptide for 1.5 h at 37 °C. After incubation, the media containing the compound were removed and the cells were washed with PBS three times. Coverslips were placed on a microscope slide (Olympus IX81 fluorescence microscope, Olympus Optical Co., Ltd., Tokyo, Japan).
The uptake and intracellular localization of FITC-labeled peptides were examined by fluorescent microscopy. […] The uptake of all peptides was examined at the concentration of 25 µM.
Figure 4 Fluorescence microscopy, visualization of FITC-labeled, R5W3R4 (A, B), [RW]6 (C, D), [RW]5 (E, F), [RW]4 (G, H), and [RW]3 (I, J) in A459 cells. The top photos show fluorescence microscopy and the bottom bright field of A459 cells. Live cells were treated with 25 µm of peptides for 1.5 h at 37 °C. Control cells were incubated in RPMI medium without the peptides.

A549 cells [4] = assay: Flow cytometry of cellular uptake of FITC-labeled peptides; assay type: cell-based; conditions: FITC-labeled peptide, 1.5 h at 37 °C, trypsin treatment to remove surface-bound peptide, FACSCalibur
Protocol: A549 cells were seeded with RMPI 1640 medium in 6-well plates (3×10^5 cells/well) 24 h prior to the experiment. After 24 h, the medium was removed and washed with PBS. Then FITC-labeled peptide was added to the cells. The plates were incubated for 1.5 h at 37 °C. After that, the medium containing the peptide was removed. The cells were washed three times with PBS and detached with 0.25 % trypsin/EDTA (0.53 mM) for 5 min. To each well, 2 ml of the medium was added and centrifuged for 4 min. Cells were washed twice with PBS and finally were re-suspended in flow cytometry buffer and analyzed by FACSCalibur (Becton Dickinson, San Jose, CA, USA).
Flow cytometry was used to determine the relative amounts of internalized peptide after 1.5 h incubation at 37 °C. After the incubation, cells were treated with trypsin to remove the cell surface-bound peptides. […] The percentage of cell fluorescence was increased with increasing peptides concentration. This effect was nearly linear for the tested concentrations. There was an increase in fluorescence intensity of cells treated with peptides of higher amino acid content.
Figure 5 Cellular uptake of FITC-labeled peptides in live A549 cells after incubation. The uptake was measured as the relative fraction of positive cells (%) from flow cytometry analysis of all living cells positive for the fluorophore.

Nc1ccn([C@@H]2O[C@H](CO)[C@@H](O)C2(F)F)c(=O)n1 [Free drug, Gemcitabine]
cell viability (A549 cells [1]; 15 µM): 20%
cell viability (A549 cells [1]; 25 µM): 20%

N=C(N)NCCC[C@H](NC(=O)[C@H](CCCNC(=N)N)NC(=O)[C@H](CCCNC(=N)N)NC(=O)[C@H](CCCNC(=N)N)NC(=O)[C@H](Cc1c[nH]c2ccccc12)NC(=O)[C@H](Cc1c[nH]c2ccccc12)NC(=O)[C@H](Cc1c[nH]c2ccccc12)NC(=O)[C@H](CCCNC(=N)N)NC(=O)[C@H](CCCNC(=N)N)NC(=O)[C@H](CCCNC(=N)N)NC(=O)[C@H](CCCNC(=N)N)NC(=O)[C@H](CCCNC(=N)N)NC(=O)CCC(=O)OC[C@H]1O[C@@H](n2ccc(N)nc2=O)C(F)(F)[C@@H]1O)C(N)=O [Gem-R5W3R4] (X1-RRRRRWWWRRRR-NH2)
cell viability / cytotoxicity in comparison to the free drug (A549 cells [1]): decreased cell viability

N=C(N)NCCC[C@H](NC(=O)CCC(=O)OC[C@H]1O[C@@H](n2ccc(N)nc2=O)C(F)(F)[C@@H]1O)C(=O)N[C@@H](Cc1c[nH]c2ccccc12)C(=O)N[C@@H](CCCNC(=N)N)C(=O)N[C@@H](Cc1c[nH]c2ccccc12)C(=O)N[C@@H](CCCNC(=N)N)C(=O)N[C@@H](Cc1c[nH]c2ccccc12)C(=O)N[C@@H](CCCNC(=N)N)C(=O)N[C@@H](Cc1c[nH]c2ccccc12)C(=O)N[C@@H](CCCNC(=N)N)C(=O)N[C@@H](Cc1c[nH]c2ccccc12)C(=O)N[C@@H](CCCNC(=N)N)C(=O)N[C@@H](Cc1c[nH]c2ccccc12)C(N)=O [Gem-[RW]6]
cell viability / cytotoxicity in comparison to the free drug (A549 cells [1]): decreased cell viability

RRRRRWWWRRRR-NH2 [R5W3R4]
cell toxicity value (A549 cells [2]; 25 µM): 9%
cell death (A549 cells [2]; 50 µM): 28%
intracellular distribution (fluorescent microscopy) (A549 cells [3]): homogeneous staining throughout the intracellular space
intracellular fluorescence, relative fraction of positive cells (flow cytometry) (A549 cells [4]): maximum intracellular fluorescence
